From patent publication US7319000B1, “Compositions and methods for eliciting immune or anti-infective responses” (priority 1992, dated 2008)

Assays:
BALB/c mice = assay: Anti-peptide antibody response (ELISA) in BALB/c mice immunized with peptide multimers; assay type: in vivo; set-up: key to Antipeptide Antibody Reactivity to Analogous Peptide: −: cpm values are corrected and categorized according to unrelated antigen response in vitro.; •: Not determined.; +: cpm values are corrected and categorized according to unrelated antigen response in vitro.; ++: cpm values are corrected and categorized according to unrelated antigen response in vitro.; +++: cpm values are corrected and categorized according to unrelated antigen response in vitro.; ++++: cpm values are corrected and categorized according to unrelated antigen response in vitro; conditions: for Antipeptide Antibody Reactivity to Analogous Peptide: antibody raised in Balb/C mice, ELISA end point; for anti-peptide antibody response (in words): high molecular weight forms of the peptides
[1] = system: PLN cells from B6C3F1 mice; assay: In vitro proliferation (3H-TdR) of PLN cells from immunized B6C3 F1 mice; assay type: in vivo; set-up: key to In Vitro Proliferation of PLN Cells from B6C3F1, Analogous Peptide / In Vitro Proliferation of PLN Cells from B6C3F1, GP 160: −: cpm values are corrected and categorized according to unrelated antigen response in vitro.; •: Not determined.; +: cpm values are corrected and categorized according to unrelated antigen response in vitro.; ++: cpm values are corrected and categorized according to unrelated antigen response in vitro.; +++: cpm values are corrected and categorized according to unrelated antigen response in vitro.; ++++: cpm values are corrected and categorized according to unrelated antigen response in vitro; conditions: for In Vitro Proliferation of PLN Cells from B6C3F1, GP 160: in vitro antigen: GP 160; for In Vitro Proliferation of PLN Cells from B6C3F1, Analogous Peptide: in vitro antigen: analogous peptide
[2] = system: PLN cells from A SW × Balb/c F1 mice; assay: In vitro proliferation (3H-TdR) of PLN cells from immunized A.SW x BALB/c F1 mice; assay type: in vivo, A.SWXBALB/C F1 mice; set-up: key: −: cpm values are corrected and categorized according to unrelated antigen response in vitro.; •: Not determined.; +: cpm values are corrected and categorized according to unrelated antigen response in vitro.; ++: cpm values are corrected and categorized according to unrelated antigen response in vitro.; +++: cpm values are corrected and categorized according to unrelated antigen response in vitro.; ++++: cpm values are corrected and categorized according to unrelated antigen response in vitro; conditions: for In Vitro Proliferation of PLN Cells from A SW × Balb/c F1, GP 160: in vitro antigen: GP 160; for In Vitro Proliferation of PLN Cells from A SW × Balb/c F1, Analogous Peptide: in vitro antigen: analogous peptide
[3] = system: PBMCs of immunized rhesus monkeys; assay: PBMC proliferation in rhesus monkeys immunized with a mixture of eight synthetic peptides; assay type: in vivo; set-up: key to T-cell Proliferation Responses: —: no detectable response; 1+: poor response; 2+: good response; 3+: better response; 4+: best response; 6+: best response; conditions: for T-cell Proliferation Responses: PBMC response to the individual peptide or gp160; for PBMC proliferative responses (in words): three rhesus monkeys, monitored for 32 weeks
Experimental: In the present studies, three rhesus monkeys (#7, #23 and #283C) were immunized subcutaneously with 1 ml (0.1 ml/site) of a mixture of eight synthetic peptides (300·g of each peptide in sterile water) emulsified in complete Freund's adjuvant at 1:1 ratio. […] At 3 and 7 weeks after the primary immunization, two booster injections of the peptide mixture (150·g of each peptide in sterile water) emulsified in incomplete Freund's adjuvant were given to each monkey. Monkey #7 was terminated after […], for health reasons unrelated to the study, while the remaining two monkeys (#283C and #23) received one additional booster injection at 25 weeks.
At two week intervals following the first immunization of each animal, 15 ml of whole heparinized blood was collected by venous puncture. The peripheral blood mononuclear cells (PBMC) were separated by standard ficoll-hypaque centrifugation and employed in proliferation assays. The PBMCs were monitored every two weeks for a period of 32 weeks for proliferative responses against individual peptides and recombinant gp160.

[4] = disulfide (di-Cys) polymeric form

Sequence: AHKVWATHACV [Peptide 106]
- Antipeptide Antibody Reactivity to Analogous Peptide (BALB/c mice): ++
- anti-peptide antibody response (in words) (BALB/c mice): high antibody titers
- In Vitro Proliferation of PLN Cells from B6C3F1, GP 160 [1]: +
- In Vitro Proliferation of PLN Cells from B6C3F1, Analogous Peptide [1]: +++
- In Vitro Proliferation of PLN Cells from A SW × Balb/c F1, GP 160 [2]: +
- In Vitro Proliferation of PLN Cells from A SW × Balb/c F1, Analogous Peptide [2]: ++++

Sequence: CRIKQIINMWQGVGKAMYA [Peptide 65, gp160 aa 417-435; polymeric form of the T-helper cell peptide]
- Antipeptide Antibody Reactivity to Analogous Peptide (BALB/c mice): ++
- anti-peptide antibody response (in words) (BALB/c mice): high antibody titers
- In Vitro Proliferation of PLN Cells from B6C3F1, GP 160 [1]: +
- In Vitro Proliferation of PLN Cells from B6C3F1, Analogous Peptide [1]: ++
- In Vitro Proliferation of PLN Cells from A SW × Balb/c F1, GP 160 [2]: ++
- In Vitro Proliferation of PLN Cells from A SW × Balb/c F1, Analogous Peptide [2]: ++++

Sequence: CVPTNPVPQEVV [Peptide 107]
- Antipeptide Antibody Reactivity to Analogous Peptide (BALB/c mice): +
- anti-peptide antibody response (in words) (BALB/c mice): high antibody titers
- In Vitro Proliferation of PLN Cells from B6C3F1, GP 160 [1]: ++
- In Vitro Proliferation of PLN Cells from B6C3F1, Analogous Peptide [1]: ++
- In Vitro Proliferation of PLN Cells from A SW × Balb/c F1, GP 160 [2]: +
- In Vitro Proliferation of PLN Cells from A SW × Balb/c F1, Analogous Peptide [2]: +

Sequence: EQMHEDIISLWDQ [Peptide 110]
- Antipeptide Antibody Reactivity to Analogous Peptide (BALB/c mice): ++++
- anti-peptide antibody response (in words) (BALB/c mice): high antibody titers
- In Vitro Proliferation of PLN Cells from B6C3F1, GP 160 [1]: −
- In Vitro Proliferation of PLN Cells from B6C3F1, Analogous Peptide [1]: ++
- In Vitro Proliferation of PLN Cells from A SW × Balb/c F1, GP 160 [2]: +
- In Vitro Proliferation of PLN Cells from A SW × Balb/c F1, Analogous Peptide [2]: ++

Sequence: FEPIPIHYCAFPGF [Peptide 114]
- Antipeptide Antibody Reactivity to Analogous Peptide (BALB/c mice): ++++
- anti-peptide antibody response (in words) (BALB/c mice): high antibody titers
- In Vitro Proliferation of PLN Cells from B6C3F1, GP 160 [1]: −
- In Vitro Proliferation of PLN Cells from B6C3F1, Analogous Peptide [1]: ++
- In Vitro Proliferation of PLN Cells from A SW × Balb/c F1, GP 160 [2]: +
- In Vitro Proliferation of PLN Cells from A SW × Balb/c F1, Analogous Peptide [2]: ++

Sequence: FLGFLGAAGSTMGAASLTLTVQANQ [Peptide 63, gp160 aa 519-543]
- Antipeptide Antibody Reactivity to Analogous Peptide (BALB/c mice): •
- anti-peptide antibody production (in words) (BALB/c mice; [4]): do not stimulate anti-peptide antibody production
- anti-peptide antibody response (in words) (BALB/c mice): very low to negligible amounts of anti-peptide antibodies
- T cell response against the corresponding peptide and native HIV envelope protein gp160 (in words) [1, 4]: strong T cell response
- In Vitro Proliferation of PLN Cells from B6C3F1, GP 160 [1]: ++
- In Vitro Proliferation of PLN Cells from B6C3F1, Analogous Peptide [1]: ++
- In Vitro Proliferation of PLN Cells from A SW × Balb/c F1, GP 160 [2]: ++
- In Vitro Proliferation of PLN Cells from A SW × Balb/c F1, Analogous Peptide [2]: ++
- T-cell Proliferation Responses ([3]; Rhesus Monkey #7): 2+
- T-cell Proliferation Responses ([3]; Rhesus Monkey #23): 4+
- T-cell Proliferation Responses ([3]; Rhesus Monkey #283C): 3+
- PBMC proliferative responses (in words) [3]: good proliferative responses

Sequence: GTGPCTNVSTVQC [Peptide 116]
- Antipeptide Antibody Reactivity to Analogous Peptide (BALB/c mice): −
- anti-peptide antibody response (in words) (BALB/c mice): very low to negligible amounts of anti-peptide antibodies
- In Vitro Proliferation of PLN Cells from B6C3F1, GP 160 [1]: −
- In Vitro Proliferation of PLN Cells from B6C3F1, Analogous Peptide [1]: ++
- T-cell Proliferation Responses ([3]; Rhesus Monkey #7): 1+
- T-cell Proliferation Responses ([3]; Rhesus Monkey #23): 3+
- T-cell Proliferation Responses ([3]; Rhesus Monkey #283C): 2+
- PBMC proliferative responses (in words) [3]: weak responses

Sequence: GVPVWKEATTLFC [Peptide 105]
- Antipeptide Antibody Reactivity to Analogous Peptide (BALB/c mice): •
- anti-peptide antibody response (in words) (BALB/c mice): high antibody titers
- In Vitro Proliferation of PLN Cells from B6C3F1, GP 160 [1]: +++
- In Vitro Proliferation of PLN Cells from B6C3F1, Analogous Peptide [1]: ++++
- In Vitro Proliferation of PLN Cells from A SW × Balb/c F1, GP 160 [2]: −
- In Vitro Proliferation of PLN Cells from A SW × Balb/c F1, Analogous Peptide [2]: +
- PBMC proliferative responses (in words) [3]: A significant response was not detected

Sequence: KKFNGTGPCTN [Peptide 115]
- Antipeptide Antibody Reactivity to Analogous Peptide (BALB/c mice): ++
- anti-peptide antibody response (in words) (BALB/c mice): high antibody titers
- In Vitro Proliferation of PLN Cells from B6C3F1, GP 160 [1]: +
- In Vitro Proliferation of PLN Cells from B6C3F1, Analogous Peptide [1]: ++

Sequence: LWDQSLKPCVKLT [Peptide 111]
- Antipeptide Antibody Reactivity to Analogous Peptide (BALB/c mice): −
- anti-peptide antibody response (in words) (BALB/c mice): very low to negligible amounts of anti-peptide antibodies
- In Vitro Proliferation of PLN Cells from B6C3F1, GP 160 [1]: ++
- In Vitro Proliferation of PLN Cells from B6C3F1, Analogous Peptide [1]: +
- In Vitro Proliferation of PLN Cells from A SW × Balb/c F1, GP 160 [2]: −
- In Vitro Proliferation of PLN Cells from A SW × Balb/c F1, Analogous Peptide [2]: •
- T-cell Proliferation Responses ([3]; Rhesus Monkey #7): 3+
- T-cell Proliferation Responses ([3]; Rhesus Monkey #23): 2+
- T-cell Proliferation Responses ([3]; Rhesus Monkey #283C): 3+
- PBMC proliferative responses (in words) [3]: good proliferative responses

Sequence: NNMVEQMHEDI [Peptide 109]
- Antipeptide Antibody Reactivity to Analogous Peptide (BALB/c mice): +++
- anti-peptide antibody response (in words) (BALB/c mice): high antibody titers
- In Vitro Proliferation of PLN Cells from B6C3F1, GP 160 [1]: •
- In Vitro Proliferation of PLN Cells from B6C3F1, Analogous Peptide [1]: ++
- In Vitro Proliferation of PLN Cells from A SW × Balb/c F1, GP 160 [2]: +
- In Vitro Proliferation of PLN Cells from A SW × Balb/c F1, Analogous Peptide [2]: •

Sequence: SLKPCVKLTPLC [Peptide 112]
- Antipeptide Antibody Reactivity to Analogous Peptide (BALB/c mice): +
- anti-peptide antibody response (in words) (BALB/c mice): high antibody titers
- In Vitro Proliferation of PLN Cells from B6C3F1, GP 160 [1]: +
- In Vitro Proliferation of PLN Cells from B6C3F1, Analogous Peptide [1]: +
- In Vitro Proliferation of PLN Cells from A SW × Balb/c F1, GP 160 [2]: +
- In Vitro Proliferation of PLN Cells from A SW × Balb/c F1, Analogous Peptide [2]: +

Sequence: VLENVTENFNM [Peptide 108]
- Antipeptide Antibody Reactivity to Analogous Peptide (BALB/c mice): +
- anti-peptide antibody response (in words) (BALB/c mice): high antibody titers
- In Vitro Proliferation of PLN Cells from B6C3F1, GP 160 [1]: +
- In Vitro Proliferation of PLN Cells from B6C3F1, Analogous Peptide [1]: +
- In Vitro Proliferation of PLN Cells from A SW × Balb/c F1, GP 160 [2]: −
- In Vitro Proliferation of PLN Cells from A SW × Balb/c F1, Analogous Peptide [2]: +

Sequence: VQCTHGIRPVVSTQ [Peptide 117]
- Antipeptide Antibody Reactivity to Analogous Peptide (BALB/c mice): ++++
- anti-peptide antibody response (in words) (BALB/c mice): high antibody titers
- In Vitro Proliferation of PLN Cells from B6C3F1, GP 160 [1]: −
- In Vitro Proliferation of PLN Cells from B6C3F1, Analogous Peptide [1]: +++
